Reference: US5310938A, “Substituted arylpyrrole compounds” (American Cyanamid Company, priority 1993, dated 1994)
Several values for one entry are separate records, joined by “and”; a condition that tells them apart may be missing. Equal values may be shown once. Read-outs that look alike come from different tables or passages of the source.

Assays:
Psoroptes cuniculi = assay: Filter paper contact test against Psoroptes cuniculi (Rabbit Ear Mite); assay type: in vivo; conditions: Psoroptes ovis
Description: On the day prior to the test initiation the drugs to be evaluated are dissolved in acetone and diluted to the desired concentrations. The concentration is calculated so that 400 μl contains the amount of test compound to be placed on each filter paper. 400 μl of this solution is pipetted onto a top (3.7 cm dia.) and bottom (3.5 cm dia.) filter paper disks which are then placed on a ceramic plate to dry. There is a rough and smooth side to the filter paper. Drug should be applied to the rough side which is placed up while drying. When dry the two disks are placed in a Petri dish with the rough sides facing in, separated by one 3 mm glass bead. Dishes are held at room temperature overnight if done the day before the test.
Scab (containing mites) is collected from the ears of infested rabbits the morning of the test. This material is placed in a large Petri dish under an illuminated magnifier. Mites crawl out of the scab and are easily collected on the point of a dissecting needle or one prong of a pair of fine forceps. The top filter paper in each dish is removed and 12 mites are placed on the bottom disk and the top paper replaced. Before replacing the top of the Petri dish the rim of the dish is smeared with Vaseline to trap any escaping mites.
For evaluation tests there are generally 4 replicates of each dose which are counted at 24 hours. After mites are added to the dishes, the dishes in each replicate are placed in a tray which is then placed in a plastic bag with several wet towels and held at room temperature.
After 24 hours dishes are examined under a dissecting scope. Each dish is opened carefully and the top filter paper removed and saved. A 1/2 cm circle is drawn on the bottom filter paper and the paper gently wet in the area of the circle. All mites from the dish are transferred into the wet circle area and counted. The top cover is replaced on each dish and the dishes set aside for at least 15 minutes. After standing the dishes are examined and the mites remaining on the circle counted. These mites are dead. Percent mortality of the mites is then calculated for each treatment.

Housefly Larvae = assay: Inhibition of pupation of newly emerged housefly larvae; assay type: in vivo; conditions: Musca domestica, 168 h, one week, 27° C., corrected by Abbott's formula
Description: In this test system newly emerged housefly larvae are grown on an undefined medium of fermented whole milk and dried beef blood. Compounds are added to the milk and activity is determined by the failure of larvae to pupate.
The test is run in 1 oz. plastic medicine cups. Paper toweling is cut in pieces approximately 3.5×10 cm. Three of these pieces are folded accordion style and placed in each paper cup. A piece of masking tape is placed on the outside of the cup to facilitate numbering. Cups should be prepared prior to the day the test is to begin.
Newly hatched housefly larvae are obtained on the morning the test is to begin. The eggs are laid the night before and larvae usually begin to hatch by 9-10 AM the following morning.
Twenty-four hours before the initiation of the test, one half gallon of whole milk is divided into 5 1-liter beakers and placed in an incubator at 39° C.
The morning of the test, one 250 ml beaker is labeled for each treatment. The fermented milk is removed from the incubator, stirred and poured into each of the small beakers. The beakers are then returned to the incubator and 1-2 g of dried beef blood added to each beaker to distribute blood which will not dissolve. The beakers are again returned to the incubator.
Doses of compounds are calculated so that 0.1 ml contains the amount of compound to be added to 100 ml of milk. Compounds should be dissolved in acetone. 100 μl of acetone is added to each control beaker.
Each beaker is removed from incubator and placed on a magnetic stirrer. The compound is added and thoroughly mixed. Then 20 ml portions are removed and added to labelled test cups (4 reps/treatment). Cups are placed in stainless steel tray until all are prepared. […] The tray containing the cups are then placed in a plastic bag and maintained at room temperature.
The media that the fly eggs are laid in is spread out in a green or black pan so that larvae can be observed. Working under an illuminated magnifier 20 larvae are transferred into each cup using a fine paint brush. Each cup is then sealed in a Zip-Loc sandwich bag with a few pinholes in it.
Bags containing cups are placed on a flat tray and placed in a 27° C. incubator for one week. The majority of the larvae will have pupated at this point.
Trays are then removed from the incubator and the number of pupae in each bag recorded. The paper toweling is removed and examined closely for any pupae that have remained in the cups. Most of the pupae will be loose in the bag. A note is also made of any dead or live developed larvae. If there are larvae that appear capable of pupating, the bag may be returned to the incubator for a day to see if they will pupate.
The percent development of pupae is then calculated. The final results are expressed as a percent inhibition of pupation and are corrected for control mortality by using Abbott's formula.

Caenorhabditis elegans = assay: Nematicidal activity against C. elegans (motility rating); assay type: in vivo, C. elegans (Bristol strain); parameters: key: 9: complete kill; 8: no motility; 7: markedly reduced motility in approximately 95% of worms; 6: reduced motility; 5: slightly reduced motility; 0: normal motility, same as controls; conditions: read at 4 and 24 hours post-immersion
Description: Cultures of C. elegans (Bristol strain from J. Lewis) are maintained on E. coli lawns on NG Agar Plates at 20° C. New cultures are established weekly.
Nematodes for testing are washed from 4-5 day old cultures using Fresh Ascaris Ringers Solution (FARS). The worms are further washed with FARS,-containing gentamycin, to reduce bacterial contamination and centrifuged to separate worms from wash solution. This procedure is repeated three times. The washed worms are then added to C. brigassae Maintenance Medium (CbMM), from GIBCOa to which is added gentamycin (600 units/ml) and mycostatin (0.5 mg/ml).
Compounds are dissolved in acetone and made up to volume with equal parts of water. The final test concentration of each compound in the mixture is 150 ppm. The test material is micropipetted (25 ul) into a single well of a 96-well sterile tissue culture plate (COSTAR)^b and the solvent allowed to evaporate. These "treated" plates are used immediately or stored in a refrigerator without apparent adverse effects on the compounds.
A freshly prepared volume ([…]) of C. elegans in CbMM is micropipetted into each treated well and several control wells per plate. Culture plates are incubated at 20° C.
Observations for efficacy are made under a dissecting microscope at 4 and 24 hours post-immersion. Immediately prior to reading the plate, it is gently tapped to stimulate the movement of the worms. Activity is judged based on the drug effects on motility of the adults and larvae. […] Other factors indicating activity are easily noted such as death, rigor mortis, contraction, coiling, paralysis, abnormal twitching, reduced worm population in 48 hours and other deviation from normal behavior.
Day 0 Inoculate E. Coli-NG Agar Dish With 30-40
Day 4 Harvest New C. Elegans Population
Add C. Elegans (25-100 µL) To "Medicated"
Observe for Activity at 4 hours Post-
Day 5 Observe For Activity

[1] = system: Trichostrongylus colubriformis; assay: Control of helminths (T. colubriformis) in infected gerbils; assay type: in vivo, Trichostrongylus colubriformis (sheep origin) in gerbils
Description: Each test generally consists of 75 infected gerbils, randomly distributed 2 or 3 per cage (the number of animals per cage is consistent within a specific experiment). Generally, there are 8-9 untreated control gerbils (3-4 cages) per test. The remaining cages are assigned a treatment, usually 1 cage per compound or dose.
Compounds administered in diet are fed for 4 days. Animals treated by gavage or injection are generally treated on only 1 day (usually day 7).
In accordance with this test, gerbils are each orally infected by gavage, with about 400 Trichostrongylus colubriformis infective larvae of sheep origin. The infected animals are then permitted to feed and drink ad libitum for six days. On day 7 the infected gerbils are randomly placed in rodent cages 2 or 3 animals per cage. The animals in each cage are weighed and the feed for each cage weighed. If the treatment to be evaluated is medicated feed, said medicated feed is offered on day 7 and continued through day 11 of the trial. If the treatment to be evaluated is a single oral dose or a parenteral treatment, the animals are given the medication by gavage or injection on day 7 and receive unmedicated feed and water through day 11 of the trial. On day 11 the animals and their feed are weighed. Thereafter the animals are euthanized by CO2 inhalation and their small intestines removed, inverted on application sticks and incubated in tap water at 39° C. for 1-5 hours. The sticks and intestines are then discarded and the worms from each treatment counted to determine the % mortality of the worms as compared to untreated controls.

Ctenocephalides felis = assay: Filter paper contact test against the cat flea; assay type: in vivo; conditions: 20.0 μg/cm^2, 24 hour
Description: This test is conducted in the same manner as the mite filter paper test described in Example 2 with the following exceptions:
(1) only one filter paper is used on the bottom of the dish;
(2) Unfed fleas that have emerged from pupae within the last 24 hours are used for the test. Fleas are initially collected in glass vials and then temporarily immobilized by placing the vials in ice. Once the fleas are no longer active, vials are opened and fleas dumped into Petri dishes. The number of fleas per dish will vary but generally contain 8-12 fleas.
(3) Dishes are held for 24 hours until the mortality counts are made;
(4) Edges of the Petri dish are sealed with Scotch tape to prevent escape of the fleas; and
(5) Dishes are not opened when test is read but fleas are observed under dissecting scope in the dishes. Some fleas will move under the filter paper so dish should be inverted to check. Fleas are considered dead if they cannot remain upright and jump.

Dermacentor variabilis = assay: Filter paper contact test against larval stages of the Dogtick; assay type: in vivo; conditions: for mortality at 1 µg/cm2, 1 µg/cm2: 1.0 μg/cm^2, 48 hour; for mortality at 5 µg/cm2, 5 µg/cm2: 5.0 μg/cm^2, 48 hour; for mortality at 10 µg/cm2, 10 µg/cm2: 10.0 μg/cm^2, 48 hour
Description: The test procedure used herein is the same procedure described in Example 2, for evaluating the arylpyrroles for control of Psoroptes cuniculi the Rabbit Ear Mite, with the following exceptions:
(1) Unfed larval ticks are obtained from egg masses laid by gravid female ticks removed from dogs and each replicate receives ticks from the same egg mass;
(2) Ticks survive longer than mites in the Petri dishes, thus readings are made 48 hours or longer after the test is initiated; and
(3) When reading the test it may be necessary to blow on the ticks to stimulate their movement.

[2] = 4.0 μg/cm^2, 24 hour, read-out: 24 hour % Mortality
[3] = 24 h, read-out: 24 hour % Mortality

| Compound | mortality at 4 µg/cm2, 4 µg/cm2 (Psoroptes cuniculi; [2]) [%] | inhibition at 10 ppm (Housefly Larvae) [%] | Rating Against C. Elegans 150 ppm (Caenorhabditis elegans) | % Helminth removal ([1]; 500 PPM in diet, 4 days) | mortality at 20 µg/cm2, 20 µg/cm2 (Ctenocephalides felis) [%] | other results |
| --- | --- | --- | --- | --- | --- | --- |
| N#CCn1c(Cl)c(Cl)c(C#N)c1-c1ccc(C(F)(F)F)cc1 [2,3-Dichloro-4-cyano-5-(α,α,α-trifluoro-P-tolyl)-pyrrole-1-acetonitrile] | 77 | 100 | 9 | – | – | – |
| 4-Bromo-1-(ethoxymethyl)-5-(trifluoromethyl)pyrrole-3-carbonitrile | – | – | – | 13% | – | – |
| N#Cc1[nH]c(-c2ccc(Cl)cc2)c(C#N)c1Br [3-Bromo-5-(p-chlorophenyl)pyrrole-2,4-dicarbonitrile] | 48 | 100 | 9 | 54% and 36% and 50% | 47 | inhibition at 1 ppm (Housefly Larvae): 0%; % Helminth removal ([1]; single oral dose 10 mg/kg): 25%; % Helminth removal ([1]; single oral dose 25 mg/kg): 18% |
| O=[N+]([O-])c1cc(C(F)(F)F)[nH]c1-c1ccc(Cl)c(Cl)c1 [2-(3,4-Dichlorophenyl)-3-nitro-5-(trifluoromethyl)-pyrrole] | – | 100 | 9 | – | 73 | mortality at 4 µg/cm2, 4 µg/cm2 (Psoroptes cuniculi; [3]): 100% |
| O=[N+]([O-])c1c(-c2ccccc2)[nH]c(C(F)(F)F)c1C(F)(F)F [3-nitro-2-phenyl-4,5-bis(trifluoromethyl)pyrrole] | – | – | 9 | 42% | – | – |
| CCOCn1c(-c2ccc(Cl)cc2)c(C#N)c(Br)c1C(F)(F)F [4-Bromo-2-(P-chlorophenyl)-1-(ethoxymethyl)-5-(trifluoromethyl)-2-(α,α,α-trifluoro-P-tolyl)pyrrole-3-carbonitrile] | – | – | – | 29% | – | – |
| CCOCn1c(-c2ccc(Cl)cc2)c(C#N)c(Br)c1C(F)(F)F [4-bromo-2-(P-chlorophenyl)-1-(ethoxymethyl)-5-(trifluoromethyl)pyrrole-3-carbonitrile] | 76 | 99 | 9 | – | – | inhibition at 1 ppm (Housefly Larvae): 15%; inhibition at 2.5 ppm (Housefly Larvae; 2.5 ppm): 0%; inhibition at 5 ppm (Housefly Larvae; 5.0 ppm): 38%; mortality at 1 µg/cm2, 1 µg/cm2 (Dermacentor variabilis): 77%; mortality at 4 µg/cm2, 4 µg/cm2 (Dermacentor variabilis; 4.0 μg/cm^2, 48 hour): 83%; mortality at 5 µg/cm2, 5 µg/cm2 (Dermacentor variabilis): 100%; mortality at 10 µg/cm2, 10 µg/cm2 (Dermacentor variabilis): 100% |
| CCOCn1c(-c2ccc(Cl)c(Cl)c2)c(C#N)c(Br)c1C(F)(F)F [4-bromo-2-(3,4-dichlorophenyl)-1-(ethoxymethyl)-5-(trifluoromethyl)-pyrrole-3-carbonitrile] | – | – | 9 | 15% and 28% | – | – |
| CCOCn1c(Cl)c(Cl)c(C#N)c1-c1ccc(C(F)(F)F)cc1 [4,5-Dichloro-1-(ethoxymethyl)-2-(α,α,α-trifluoro-P-tolyl)pyrrole-3-carbonitrile] | 92 | 64 | 9 | – | 71 | mortality at 0.01 µg/cm2, 0.01 µg/cm2 (Psoroptes cuniculi; [3]): 48%; mortality at 0.1 µg/cm2, 0.1 µg/cm2 (Psoroptes cuniculi; 0.1 μg/cm^2, 24 hour): 20%; mortality at 1 µg/cm2, 1 µg/cm2 (Psoroptes cuniculi; 1.0 μg/cm^2, 24 hour): 100%; mortality at 16 µg/cm2, 16 µg/cm2 (Psoroptes cuniculi; 16.0 μg/cm^2, 24 hour): 100%; mortality at 1 µg/cm2, 1 µg/cm2 (Dermacentor variabilis): 52%; mortality at 5 µg/cm2, 5 µg/cm2 (Dermacentor variabilis): 100%; mortality at 10 µg/cm2, 10 µg/cm2 (Dermacentor variabilis): 97% |
